Assay results published in patent US20210220331A1, “INHIBITORS OF IRES-MEDIATED PROTEIN SYNTHESIS” (The Regents of the University of California, priority 2016, published 2021).
Where two headings read alike, the source gives them in different places.

Experiments:
Pharmacokinetics in mice = type: in vivo
Method: The pharmacokinetic properties of IRES-J007 in mice were determined. […] IRES-J007 was ˜50% bioavailable following oral delivery with a serum half-life of approximately 30 hours.

cyclin D1 mRNA = assay: Polysome analysis of xenografted LN229 tumors, cyclin D1 mRNA
Method: (§4) Cells were lysed in buffer containing 100 μg/ml cycloheximide at 4° C. Following removal of mitochondria and nuclei, supernatants were layered onto 15-50% sucrose gradients and centrifuged at 38,000 rpm for 2 h at 4° C. in an SW40 rotor (Beckman Instruments). Gradients were fractionated into 11 1-ml fractions using a density gradient fractionator (Brandel Instruments). The profiles of the gradients were monitored at 260 nm, and RNAs from individual fractions were pooled into a nonribosomal/monosomal pool and a polysomal pool. These RNAs (100 ng) were used in real time quantitative RT-PCR analysis for the indicated transcripts.
(§5) Tumor extracts were subjected to sucrose density gradient centrifugation, fractionated and pooled into nonribosomal, monosomal fraction (N, white bars) and a polysomal fraction (P, black bars). Purified RNAs were used in real-time qRT-PCR analysis to determine the distributions of cyclin D1, c-MYC and actin mRNAs across the gradients. […] Means and +S.D. values are shown for quadruplicate RT-PCR measurements. *, P<0.05.
(§6) Polysomes were separated via sucrose density gradient sedimentation and fractionated into heavy polysomal and nonribosomal/monosomal fractions.

actin mRNA = assay: Polysome analysis of xenografted LN229 tumors, actin mRNA; details: monotherapy
Method: as §4, §5, §6

human p27Kip1 IRES = assay: Dicistronic IRES mRNA reporter assay, p27Kip1 IRES; type: cell-based; details: LN229 cells
Method: (§1) Western blot and quantitative RT-PCR analyses were performed as previously described (19). For Western blotting, cells or tissues were lysed in RIPA (lysis) buffer containing protease inhibitor cocktail and phosSTOP phosphatase inhibitor cocktail (Roche) and extracts resolved by SDSPAGE. Proteins were transferred to PVDF membranes and incubated with the indicated antibodies. For IRES reporter assays, the indicated mRNA reporters were cotransfected into cells with pSVβ-galactosidase to normalize for transfection efficiency as described previously (16). Cells were harvested 18 h following transfection and Renilla, firefly and β-galactosidase activities determined using the Dual-Glo Luciferase and β-galactosidase assay systems (Promega).
(§2) (B) Schematic diagrams of the dicistronic constructs used in this study. […] Input and bound fractions were analyzed by immunoblotting using hnRNP A1 antibodies. […] Bound CCND1 or c-MYC RNAs were detected via RT-PCR. […]
(§3) Several dicistronic IRES mRNA reporter constructs were utilized, shown in FIG. 1B, in which the indicated IRES sequences were inserted within the intercistronic region. LN229 cells transiently transfected with these constructs were assayed for Renilla and firefly luciferase activities, which are readouts of cap-dependent and IRES-mediated translation initiation, respectively (16).

[1] = tested on: IRES from encephalomyocarditis virus; assay: Dicistronic IRES mRNA reporter assay, ECMV IRES; type: cell-based; details: LN229 cells
Method: as §1, §2, §3

[2] = tested on: cyclin D1 or c-MYC mRNA association with eIF-4E; assay: eIF-4E immunoprecipitation and qRT-PCR of bound RNA; type: cell-based; details: LN229 cells, 50 nM
Method: For immunopurification of eIF4E and bound RNA (21), cells were lysed in buffer containing 50 mM Tris-HCl (pH 7.4), 300 mM NaCl, 0.5% NP-40, 10 mM NaF, 1 mM sodium orthovanidate, 1 mM PMSF, 1.5% aprotinin and SUPERase-IN (ThermoFisher Scientific), 0.025 units/ml, using a Dounce homogenizer at 4° C. Extracts were cleared by centrifugation and immunoprecipitated with eIF4E or control IgG. Beads were washed and obtained RNA was subjected to quantitative RTPCR. For quantitative RT-PCR, extraction of RNA was performed using Trizol (ThermoFisher). Total RNA was then quantified and integrity assessed using an Agilent 2100 Bioanalyzer (Agilent Technology). Total RNA was reverse transcribed with random primers using the RETROscript Kit from ThermoFisher. SYBR Green quantitative PCR was performed in triplicate in 96-well optical plates on an ABI Prism 7000 Sequence Detection System (Life Technologies) according to the manufacturer's instructions. Primer sequences for CCND1, c-MYC and actin are available upon request. […]
as §2

Row | SMILES | AUC (Pharmacokinetics in mice; mouse, plasma, 20 mg/kg, PO) [µg·h/mL] | Cmax (Pharmacokinetics in mice; mouse, plasma, 20 mg/kg, PO) [µg/mL] | Tmax (Pharmacokinetics in mice; mouse, plasma, 20 mg/kg, PO) [h] | half-life (Pharmacokinetics in mice; mouse, plasma, 20 mg/kg, PO, read-out: Half-life (T1/2 K10) (converted)) [h] | AUC (Pharmacokinetics in mice; mouse, plasma, IV) [µg·h/mL] | Cmax (Pharmacokinetics in mice; mouse, plasma, IV) [µg/mL] | Tmax (Pharmacokinetics in mice; mouse, plasma, IV) [h] | clearance (Pharmacokinetics in mice; mouse, plasma, IV) [mL/min/kg] | half-life (Pharmacokinetics in mice; mouse, plasma, IV, read-out: Half-life (T1/2 b) (converted)) [h] | bioavailability (Pharmacokinetics in mice; mouse, plasma, iv, read-out: Relative Bioavailability) [%] | bioavailability (Pharmacokinetics in mice; mouse, plasma, po, 20 mg/kg, PO, calculated based on AUC, read-out: Relative Bioavailability) [%] | bioavailability (Pharmacokinetics in mice; mouse, plasma, po, 20 mg/kg, oral gavage 20 mg/kg, read-out: bioavailability following oral delivery) [%] | half-life (Pharmacokinetics in mice; mouse, serum, oral delivery 20 mg/kg, read-out: serum half-life (converted)) [h] | trough levels (Pharmacokinetics in mice; single 20 mg/kg dose) | cyclin D1 mRNA translational efficiency (cyclin D1 mRNA; IRES-J007 monotherapy) | CCND1 mRNA polysomal (cyclin D1 mRNA; PP242 and IRES-J007 cotherapy) [%] | actin mRNA polysomal distribution / translational efficiency (actin mRNA) | IRES-mediated initiation from p27Kip1 IRES (human p27Kip1 IRES) | IRES-mediated initiation from ECMV IRES [1] | cyclin D1 or c-MYC mRNA association with eIF-4E [2]
1 | COc1ccc(CN2C(=O)c3ccccc3C2=O)c(OC)c1 [IRES-J007, 2-((2,4-Dimethoxyphenyl)methyl)isoindoline-1,3-dione] | 759 | 17.2 | 7.2 | 27.4 | 1290 | 284 | 0.05 | 152 | 13.6 | 100 | 40.1 | ~50 | ~30 | exceeded concentrations expected to block hnRNP A1 IRES activity | significant reduction | 5 | unaffected |  |  | 
2 | COc1ccc(CN2C(=O)C(Cl)=C(Cl)C2=O)c(OC)c1 [Compound C11, reference compound] |  |  |  |  |  |  |  |  |  |  |  |  |  |  |  |  |  | did not affect | did not affect | did not affect
